Results reported in ChEMBL document CHEMBL1130994, “3-trifluoromethylcarbacephems: synthesis of broad spectrum antibacterial compounds” (1998).
≈ marks a conversion by molar mass, not a printed value.

Tests used:
Assay type in all cases: functional
[1] = test system: Acinetobacter; test: Compound was evaluated for inhibitory activity against AC12 Acinetobacter
[2] = test system: Citrobacter; test: Compound was evaluated for inhibitory activity against CF17 Citrobacter
[3] = test system: Enterobacter cloacae; test: Compound was evaluated for inhibitory activity against 265a Enterobacter cloacae beta-lactamase
[4] = test system: Enterobacter cloacae; test: Compound was evaluated for inhibitory activity against EB5 Enterobacter cloacae
[5] = test system: Escherichia coli; test: Compound was evaluated for inhibitory activity against EC14 Escherichia coli sensitive
[6] = test system: Escherichia coli; test: Compound was evaluated for inhibitory activity against TEM Escherichia coli beta-lactamase
[7] = test system: Klebsiella aerogenes; test: Compound was evaluated for inhibitory activity against EB17 Enterobacter aerogenes
[8] = test system: Enterococcus faecalis; test: Compound was evaluated for inhibitory activity against 2041 Enterococcus faecalis Gp.D streptococcus penicillin susceptible
[9] = test system: Klebsiella aerogenes; test: Compound was evaluated for inhibitory activity against C32 Enterobacter aerogenes
[10] = test system: Haemophilus influenzae; test: Compound was evaluated for inhibitory activity against 76 Haemophilus influenzae beta-lactamase
[11] = test system: Haemophilus influenzae; test: Compound was evaluated for inhibitory activity against C.L Haemophilus influenzae ampicillin sensitive
[12] = test system: Klebsiella pneumoniae; test: Compound was evaluated for inhibitory activity against KAE Klebsiella pneumoniae
[13] = test system: Klebsiella pneumoniae; test: Compound was evaluated for inhibitory activity against X26 Klebsiella pneumoniae
[14] = test system: Morganella morganii; test: Compound was evaluated for inhibitory activity against PR15 Morganella morganii
[15] = test system: Providencia rettgeri; test: Compound was evaluated for inhibitory activity against C24 Providencia rettgeri
[16] = test system: Providencia stuartii; test: Compound was evaluated for inhibitory activity against PR33 Providencia stuartii
[17] = test system: Salmonella; test: Compound was evaluated for inhibitory activity against X514 Salmonella
[18] = test system: Serratia; test: Compound was evaluated for inhibitory activity against SE3 Serratia
[19] = test system: Serratia; test: Compound was evaluated for inhibitory activity against X99 Serratia
[20] = test system: Streptococcus pneumoniae; test: 32 Compound was evaluated for inhibitory activity against Park S Streptococcus pneumoniae
[21] = test system: Streptococcus pyogenes; test: Compound was evaluated for inhibitory activity against C203 Streptococcus pyogenes Gp.A
[22] = test system: Staphylococcus aureus; test: Compound was evaluated for inhibitory activity against S13E Staphylococcus aureus methicillin resistant penicillin resistant macrolide sensitive (PBP2a producer)
[23] = test system: Staphylococcus aureus; test: Compound was evaluated for inhibitory activity against X1.1 Staphylococcus aureus penicillin sensitive
[24] = test system: Staphylococcus aureus; test: Compound was evaluated for inhibitory activity against X400S Staphylococcus aureus methicillin resistant and macrolide resistant
[25] = test system: Acinetobacter; test: Compound was evaluated for minimum inhibitory concentration against AC12 Acinetobacter
[26] = test system: Citrobacter; test: Compound was evaluated for minimum inhibitory concentration against CF17 Citrobacter
[27] = test system: Morganella morganii; test: Compound was evaluated for minimum inhibitory concentration against PR15 Morganella morganii
[28] = test system: Providencia rettgeri; test: Compound was evaluated for minimum inhibitory concentration against C24 Providencia rettgeri
[29] = test system: Salmonella; test: Compound was evaluated for minimum inhibitory concentration against X514 Salmonella
[30] = test system: Serratia; test: Compound was evaluated for minimum inhibitory concentration against SE3 Serratia
[31] = test system: Serratia; test: Compound was evaluated for minimum inhibitory concentration against X99 Serratia
[32] = test system: Streptococcus pneumoniae; test: Compound was evaluated for inhibitory activity against Park S Streptococcus pneumoniae
[33] = test system: Providencia stuartii; test: Compound was evaluated for minimum inhibitory concentration against PR33 Providencia stuartii

| SMILES | MIC [3] [µM] | MIC [4] [µM] | MIC [5] [µM] | MIC [6] [µM] | MIC [7] [µM] | MIC [8] [µM] | MIC [9] [µM] | MIC [10] [µM] | MIC [11] [µM] | MIC [12] [µM] | MIC [13] [µM] | MIC [21] [µM] | MIC [22] [µM] | MIC [23] [µM] | MIC [24] [µM] | also measured |
| --- | --- | --- | --- | --- | --- | --- | --- | --- | --- | --- | --- | --- | --- | --- | --- | --- |
| N[C@@H](C(=O)N[C@@H]1C(=O)N2C(C(=O)O)=C(C(F)(F)F)CC[C@H]12)c1cccc(F)c1 | 32 (≈ 12.8 µg/mL) | 16 (≈ 6.42 µg/mL) | 4 (≈ 1.61 µg/mL) | 2 (≈ 0.803 µg/mL) | 8 (≈ 3.21 µg/mL) | 32 (≈ 12.8 µg/mL) | 16 (≈ 6.42 µg/mL) | 2 (≈ 0.803 µg/mL) | 2 (≈ 0.803 µg/mL) | 16 (≈ 6.42 µg/mL) | 2 (≈ 0.803 µg/mL) | 0.06 (≈ 0.0241 µg/mL) | 32 (≈ 12.8 µg/mL) | 2 (≈ 0.803 µg/mL) | 64 (≈ 25.7 µg/mL) | MIC [1]: 32 µM (≈ 12.8 µg/mL); MIC [2]: 16 µM (≈ 6.42 µg/mL); MIC [14]: 32 µM (≈ 12.8 µg/mL); MIC [15]: 16 µM (≈ 6.42 µg/mL); MIC [16]: 16 µM (≈ 6.42 µg/mL); MIC [17]: 2 µM (≈ 0.803 µg/mL); MIC [18]: 64 µM (≈ 25.7 µg/mL); MIC [19]: 32 µM (≈ 12.8 µg/mL); MIC [20]: 0.25 µM (≈ 0.1 µg/mL) |
| Cc1ccc([C@@H](N)C(=O)N[C@@H]2C(=O)N3C(C(=O)O)=C(C(F)(F)F)CC[C@H]23)cc1 | 32 (≈ 12.7 µg/mL) | 16 (≈ 6.36 µg/mL) | 2 (≈ 0.795 µg/mL) | 4 (≈ 1.59 µg/mL) | 8 (≈ 3.18 µg/mL) | 8 (≈ 3.18 µg/mL) | 8 (≈ 3.18 µg/mL) | 4 (≈ 1.59 µg/mL) | 2 (≈ 0.795 µg/mL) | 8 (≈ 3.18 µg/mL) | 0.5 (≈ 0.199 µg/mL) | 0.06 (≈ 0.0238 µg/mL) | 4 (≈ 1.59 µg/mL) | 1 (≈ 0.397 µg/mL) | 4 (≈ 1.59 µg/mL) | MIC [25]: 16 µM (≈ 6.36 µg/mL); MIC [26]: 16 µM (≈ 6.36 µg/mL); MIC [27]: 8 µM (≈ 3.18 µg/mL); MIC [28]: 16 µM (≈ 6.36 µg/mL); MIC [29]: 4 µM (≈ 1.59 µg/mL); MIC [30]: 64 µM (≈ 25.4 µg/mL); MIC [31]: 16 µM (≈ 6.36 µg/mL); MIC [32]: 0.13 µM (≈ 0.0517 µg/mL); MIC [33]: 16 µM (≈ 6.36 µg/mL) |
